Biological target: T1, Or22a/Orco (Drosophila melanogaster, UniProt P81909)
T1 construct: his-tag; made in house; host or cells: baculovirus-infected Sf9 cells
T1 sequence (P81909 1-397): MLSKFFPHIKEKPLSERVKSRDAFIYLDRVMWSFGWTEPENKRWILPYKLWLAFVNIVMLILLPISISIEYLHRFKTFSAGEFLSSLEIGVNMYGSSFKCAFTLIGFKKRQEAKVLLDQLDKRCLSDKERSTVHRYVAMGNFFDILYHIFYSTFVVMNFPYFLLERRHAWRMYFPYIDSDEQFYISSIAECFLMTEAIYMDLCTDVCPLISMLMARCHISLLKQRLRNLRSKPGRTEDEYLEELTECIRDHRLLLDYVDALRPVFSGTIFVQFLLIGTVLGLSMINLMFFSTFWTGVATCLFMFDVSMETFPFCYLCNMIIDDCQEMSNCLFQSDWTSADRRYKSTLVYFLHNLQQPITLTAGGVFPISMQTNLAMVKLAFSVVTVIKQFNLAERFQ
T1 sequence (Q9VNB5 1-486 partner): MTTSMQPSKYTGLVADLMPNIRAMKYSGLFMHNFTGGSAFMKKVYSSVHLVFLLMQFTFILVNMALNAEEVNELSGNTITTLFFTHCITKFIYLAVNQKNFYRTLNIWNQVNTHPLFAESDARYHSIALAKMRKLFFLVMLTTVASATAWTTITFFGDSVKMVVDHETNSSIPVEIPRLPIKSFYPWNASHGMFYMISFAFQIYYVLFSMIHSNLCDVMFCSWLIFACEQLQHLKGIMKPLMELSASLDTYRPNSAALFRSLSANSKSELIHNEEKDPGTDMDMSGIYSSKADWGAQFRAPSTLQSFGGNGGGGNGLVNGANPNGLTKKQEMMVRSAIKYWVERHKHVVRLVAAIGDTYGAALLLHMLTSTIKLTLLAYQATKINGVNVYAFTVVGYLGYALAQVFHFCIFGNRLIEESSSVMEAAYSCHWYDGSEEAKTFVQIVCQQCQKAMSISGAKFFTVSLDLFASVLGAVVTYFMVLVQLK
Experiment: EIS sensor, Or22a/Orco liposomes on gold electrode
Assay type: biochemical
Method: Prior to their use, liposomes were defrosted on ice and then destabilized by incubating with 0.2% CHAPS for 15 min at room temperature. Then 200 μg of purified odorant receptor^28 was added to 1 mg of liposomes and rotated at 10 rpm for 1 h at room temperature. Excess detergent was removed by four additions of 25 mg of Bio-Beads SM-2 (Bio-Rad, USA) and incubation at 4° C. for 30 min, 2 h, overnight and a further 2 h respectively. The Bio-Beads were removed after each incubation period. The OrX or OrX/Orco integrated liposomes were pelleted by centrifugation at 100,000 g for 1 h, and were resuspended in 500 μL of rehydration buffer. Integration of OrXs and Orco into liposomes was assessed by density gradient ultracentrifugation (DGU) using Accudenz (Accurate Chemical & Scientific Corporation, USA). The integrated liposomes were brought to 40% Accudenz by the addition of an equal volume of 80% Accudenz solution, placed at the bottom of an ultra-centrifugation tube, and overlaid with 30% Accudenz solution, and DGU buffer (25 mM HEPES pH 7.5, 100 mM NaCl, 10% glycerol). The sample was then centrifuged at 100,000 g for 4 h at 4° C. Liposomes will float to the top of the gradient after Accudenz DGU due to their low density.
2 mM MHA was prepared by dissolving 1.36 μl of MHA in 5 ml ethanol (AR grade). The cleaned electrodes were immersed into MHA solution and incubated overnight. The next day, all the electrodes were washed with ethanol and deionised water thoroughly in order to remove the unreacted acid. A 2:1 mol:mol ratio of EDC:NHS (100 mM EDC, 50 mM NHS) was prepared in 2 ml PBS (pH=6.5) solution. Then, the electrodes were covered in 100 μl of this solution at 28° C. for an hour to activate the carboxylic (COOH) groups of the MHA.
PBS solution was prepared by immersing one tablet of PBS in 200 ml of milli-Q water (according to manufacturers instructions) and filtered using 0.2-μm syringe filter. The pH of the prepared buffer solution was measured with a pH meter. […]

CCCCCC(=O)OC [methyl hexanoate]
limit of detection (EIS dose response, ligand 1 aM to 100 μM): 0.1 fM
Sensitivity limit (Table 1, * estimated visually from dose response graph): ~10^−16 M*
Detection Range (Table 3): 10^−16-10^−5 M

— patent US20210255184A1, “Biosensor Device and Methods” (The New Zealand Institute for Plant and Food Research …, priority 2018, published 2021)
